Source: paper PMC3191281 (2011)

Target: T1, CK1α (casein kinase Iα) (Homo sapiens, UniProt P48729)
T1 sequence (P48729 2-337): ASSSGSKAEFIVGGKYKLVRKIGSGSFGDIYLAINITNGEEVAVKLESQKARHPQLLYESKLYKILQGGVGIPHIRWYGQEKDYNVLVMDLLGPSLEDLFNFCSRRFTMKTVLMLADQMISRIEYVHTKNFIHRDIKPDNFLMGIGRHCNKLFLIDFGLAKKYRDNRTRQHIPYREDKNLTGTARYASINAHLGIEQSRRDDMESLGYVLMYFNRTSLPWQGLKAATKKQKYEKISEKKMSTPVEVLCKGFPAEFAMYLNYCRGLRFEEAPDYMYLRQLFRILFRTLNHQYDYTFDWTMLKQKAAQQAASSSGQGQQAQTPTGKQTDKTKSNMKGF
Experiment: TR-FRET
Format: biochemical

## CCCCCc1cc(/C=C2/N=C(c3ccc[nH]3)C=C2OC)[nH]c1C [NSC 47147]
  IC50: 6 µM
